# Publication PMC11647725, “Discovery of 4-(5-Membered)Heteroarylether-6-methylpicolinamide Negative Allosteric Modulators of Metabotropic Glutamate Receptor Subtype 5” (ACS Medicinal Chemistry Letters, 2024)
# Read-outs that look alike come from different tables or passages of the source.
# Columns and labels:
# human mGlu5 = target: T1, human mGlu5 (Homo sapiens, UniProt P41594); experiment: Calcium mobilization assay in human mGlu5-HEK293A cells (NAM, EC80 glutamate); assay type: cell-based; settings: for % GluMin: efficacy of the NAM to reduce an EC80 response of glutamate; for pIC50: n = 2 in triplicate; for IC50: read-out: hmGlu5 IC50; for fold increase in hmGlu5 potency: 22fC vs 22bC, 22gA vs 22iA, 22iA vs 22hA, 22iB vs 22hB
# T1 construct: expressed in transfected cells
# T1 sequence (P41594 21-1212): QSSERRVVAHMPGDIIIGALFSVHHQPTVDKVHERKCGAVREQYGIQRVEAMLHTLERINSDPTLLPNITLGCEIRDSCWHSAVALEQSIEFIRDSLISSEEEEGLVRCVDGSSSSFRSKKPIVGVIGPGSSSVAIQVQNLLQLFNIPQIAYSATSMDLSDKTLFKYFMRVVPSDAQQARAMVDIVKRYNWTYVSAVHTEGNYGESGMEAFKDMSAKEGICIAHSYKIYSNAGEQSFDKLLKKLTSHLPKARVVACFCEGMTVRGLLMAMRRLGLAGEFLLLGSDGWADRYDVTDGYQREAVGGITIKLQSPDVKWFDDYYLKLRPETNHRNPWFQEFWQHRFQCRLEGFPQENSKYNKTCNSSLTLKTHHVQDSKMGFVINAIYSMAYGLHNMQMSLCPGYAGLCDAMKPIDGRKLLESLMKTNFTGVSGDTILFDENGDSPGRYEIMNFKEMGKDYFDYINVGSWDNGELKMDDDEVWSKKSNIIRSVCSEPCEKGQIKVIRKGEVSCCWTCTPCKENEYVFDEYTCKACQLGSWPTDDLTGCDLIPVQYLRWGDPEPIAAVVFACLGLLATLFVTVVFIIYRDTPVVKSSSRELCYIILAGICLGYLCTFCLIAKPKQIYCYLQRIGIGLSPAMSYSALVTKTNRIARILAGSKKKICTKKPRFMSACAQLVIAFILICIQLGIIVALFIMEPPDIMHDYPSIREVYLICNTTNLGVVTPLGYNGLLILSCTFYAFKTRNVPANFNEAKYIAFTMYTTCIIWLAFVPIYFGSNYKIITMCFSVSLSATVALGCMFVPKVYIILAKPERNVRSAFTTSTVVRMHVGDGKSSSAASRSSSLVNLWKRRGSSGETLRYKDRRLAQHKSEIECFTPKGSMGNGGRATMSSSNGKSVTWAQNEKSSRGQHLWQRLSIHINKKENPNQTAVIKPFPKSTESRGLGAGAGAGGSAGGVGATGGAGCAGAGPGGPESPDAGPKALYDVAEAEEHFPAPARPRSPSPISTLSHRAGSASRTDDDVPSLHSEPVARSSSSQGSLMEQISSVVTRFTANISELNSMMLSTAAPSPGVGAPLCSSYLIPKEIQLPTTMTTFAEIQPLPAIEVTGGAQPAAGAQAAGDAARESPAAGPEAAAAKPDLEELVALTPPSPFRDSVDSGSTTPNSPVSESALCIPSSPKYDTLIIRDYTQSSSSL
# [1] = IV plasma-brain level determination (PBL) in rat; assay type: in vivo; settings: male, Sprague-Dawley, brain and plasma, SD rat, 0.2 mg/kg IV; for Kp at 0.25 h: total brain-to-plasma partition ratio
# [2] = Intrinsic clearance in human liver microsomes; assay type: in vitro ADME; settings: for CLint scaled at 40 min, 1 µM: pH 7.4, human liver microsomes; for CLhep, human: predicted hepatic clearance based on microsomal CLint
# Description: (§1) Mean values for each species were calculated from 3 replicates.
# (§2) Intrinsic Clearance in Rat and Human Liver Microsomes
# (§3) The in vitro intrinsic clearance (CL int) was investigated in commercially obtained hepatic microsomes from rat and human donors using the substrate depletion (i.e., loss-of-parent vs. time, or t 1/2 method) approach with analyte detection via liquid chromatography-tandem mass spectrometry (LC-MS/MS). For each species, mean %parent remaining values at each time point were calculated from replicates raw data (analyte:IS peak area ratios) and used to determine in vitro t 1/2 and CLint.
# (§4) Experiments were carried out using a robot-assisted (TECAN model Evo 200). Compound was incubated (1 µM final concentration) in buffer (100 mM potassium phosphate pH 7.4 with 3 mM MgCl2) containing hepatic microsomes (0.5 mg/mL final concentration) from multiple species, discretely, at 37 °C under constant orbital shaking. After 5 minutes (pre-incubation), reactions were initiated by addition of nicotinamide adenine dinucleotide phosphate (NADPH, 1 mM final concentration). At selected time intervals (0, 3, 7, 15, 25, and 45 minutes) post-addition of NADPH, aliquots (50 µL) were taken and placed into a 96-shallow-well plate containing ice cold acetonitrile (150 µL) with carbamazepine (IS, 50 nM). The plates were then centrifuged (3000 rcf at 4 °C) for 10 minutes. The supernatants were transferred to a new 96-shallow-well daughter plate and diluted (1:1 v/v) with water (Milli-Q filtered). The plates were then sealed in preparation for LC-MS/MS analysis (see below).
# (§5) Raw LC-MS/MS peak area data generated from the assay samples were used to construct natural log-transformed %parent remaining vs. time plots (using t = 0 minute post-NADPH addition sample data as starting point set to 100%). In vitro compound half-life (t 1/2) values were obtained using the following […]
# (§6) k is the slope from linear regression analysis of the natural log-transformed data (using means from Where all replicates at each time point). Resulting t 1/2 values were then used to calculate hepatic CLint values according to the following equation and with the use of species-specific scale-up factors for liver weight (grams) per total body weight (kg): […]
# (§7) CLint = in vitro t1/2 x 0.5 mg microsomes x 1 gram liver x kg body wt aScale-up factors used are 45 (rat) and 20 (human).4
# (§8) Predicted hepatic clearance (CLhep) was calculated using the following equation: […]
# (§9) Qh represents hepatic blood flow (mL/min/kg): 21 for human, 70 for rat, and 90 for mouse.
# (§10) Prepared samples were injected (10 µL each) onto an AB Sciex Triple Quad 4500 mass spectrometer system with an Agilent 1260 Infinity II pump and autosampler. Mass spectrometer conditions are described in Table S1. Quantitation of compounds was performed via AB Sciex Multiquant software using the raw analyte:IS peak area ratios. The typical detection range was 0.5 ng/mL to ≥ 5,000 ng/mL utilizing a quadratic equation regression with 1/x2 weighting.
# (§11) Correction for dilution of all brain samples (in extraction buffer and subsequently in blank plasma, as previously described) was performed post-quantitation. The corrections for dilution in extraction buffer employed correction factors specific to each brain weight (not shown).
# [3] = Binding in plasma from human (equilibrium dialysis); assay type: in vitro ADME; settings: for fraction unbound at 6 h, 5 µM: human, plasma, read-out: Human fu,plasma
# Description: (§12) Binding in plasma from rat and human.
# (§13) Determination of compounds’ fraction unbound (f u) in plasma from rat and human was conducted in vitro via equilibrium dialysis using HTDialysis membrane plates. Dialysis membranes (four paired strips per HTD assay) were hydrated as described by the manufacturer and inserted into the HTD plate, which was assembled and prepared for sample addition by the dispensing of blank buffer (DPBS, 100 µL/well) into the ‘top half’ of each membrane-split well. Each compound was diluted into plasma from each species (5 µM final concentration), which was aliquoted in triplicate to the ‘bottom half’ of the prepared HTD plate wells. The HTD plate was sealed and incubated for 6 hours at 37 °C. Following incubation, each well (both top and bottom halves) were transferred (20 µL) to the corresponding wells of a 96-shallow-well (V-bottom) plate. The daughter plates were then matrix-matched (buffer side wells received equal volume of plasma, and plasma side wells received equal volume of buffer), and extraction solution (120 µL; acetonitrile containing 50 nM carbamazepine as IS) was added to all wells of both daughter plates to precipitate protein and extract test article. The plates were then sealed and centrifuged (3500 rcf) for 10 minutes at ambient temperature. Supernatant (60 µL) from each well of the daughter plates was then transferred to the corresponding wells of new daughter plates (96-shallow-well, V bottom) containing water (Milli-Q, 60 µL/well), and the plates were sealed in preparation for LC-MS/MS analysis (see below). fu was calculated as (analyte to IS MS peak area ratio from Trans-buffer side) / (analyte to IS MS peak area ratio from Cis-plasma side). Mean values for each species were calculated from 3 replicates. […]
# (§14) Mean values for each species were calculated from 3 replicates. […]
# as §4, with “After” for “Experiments were carried out using a robot-assisted (TECAN model Evo 200). Compound was incubated (1 µM final concentration) in buffer (100 mM potassium phosphate pH 7.4 with 3 mM MgCl2) containing hepatic microsomes (0.5 mg/mL final concentration) from multiple species, discretely, at 37 °C under constant orbital shaking. After”
# [4] = Intrinsic clearance in rat liver microsomes; assay type: in vitro ADME; settings: for CLint scaled at 40 min, 1 µM: pH 7.4, rat liver microsomes; for CLhep, rat: predicted hepatic clearance based on microsomal CLint
# Description: as §1, §2, §3, §4, §5, §6, §7, §8, §9, §10, §11
# [5] = Binding in brain homogenate from rat (equilibrium dialysis); assay type: in vitro ADME; settings: rat brain homogenates; for fraction unbound at 6 h, 1 µM: rat, brain homogenate, read-out: Rat fu,brain
# Description: transferred to the corresponding wells of new daughter plates (96-shallow-well, V bottom) containing water (Milli-Q, 60 µL/well), and the plates were sealed in preparation for LC-MS/MS analysis (see below). fu was calculated as (analyte to IS MS peak area ratio from Trans-buffer side) / (analyte to IS MS peak area ratio from Cis-plasma side). Mean values for each species were calculated from 3 replicates.
# Binding in brain homogenate from rat.
# Determination of fraction unbound (f u) in brain homogenate from rat was conducted using the same methodology and procedure than described for plasma protein binding assay with the following modifications: 1) a final compound concentration of 1 μM was used, 2) naïve rat brains were homogenized in DPBS (1:3 composition of brain: DPBS, w/w) using a Mini-Bead Beater™ machine in order to obtain […]
# The diluted fraction unbound (f u2) in brain was calculated as (analyte to IS MS peak area ratio from Trans-buffer side) / (analyte to IS MS peak area ratio from Cis-brain homogenate side). Undiluted fraction unbound for the brain was calculated using the following equation: […]
# as §14
# [6] = Binding in plasma from rat (equilibrium dialysis); assay type: in vitro ADME; settings: samples had low analyte peaks
# Description: as §12, §13, §14
# as §4, with “After” for “Experiments were carried out using a robot-assisted (TECAN model Evo 200). Compound was incubated (1 µM final concentration) in buffer (100 mM potassium phosphate pH 7.4 with 3 mM MgCl2) containing hepatic microsomes (0.5 mg/mL final concentration) from multiple species, discretely, at 37 °C under constant orbital shaking. After”
# [7] = human mGlu5-HEK293A cells, EC80 fixed concentration of glutamate
% GluMin (human mGlu5; human mGlu5-HEK293A cells),pIC50 (human mGlu5; [7]),IC50 (human mGlu5; [7]),IC50 (human mGlu5),SMILES,Kp at 0.25 h [1],Kp uu at 0.25 h ([1]; unbound brain-to-plasma partition ratio),"CLint scaled at 40 min, 1 µM [2]","CLhep, human [2]","Human fu,plasma ([3]; fraction unbound)","fraction unbound at 6 h, 5 µM [3]","CLint scaled at 40 min, 1 µM [4]","CLhep, rat [4]","fraction unbound at 6 h, 1 µM [5]",fold increase in hmGlu5 potency (human mGlu5),stability in rat plasma [6],"Rat fu,brain ([5]; fraction unbound)"
2%,5.91,1.25 µM,,Cc1cc(Oc2cn(C)nc2C)cc(C(=O)Nc2nc(C)cs2)n1 [22bB],,,,,,,,,,,,
2%,5.73,1.89 µM,,Cc1cc(Oc2ncn(C)n2)cc(C(=O)Nc2nc(C)cs2)n1 [22dB],,,,,,,,,,,,
2%,5.55,2.82 µM,2.8 µM,Cc1csc(NC(=O)c2cc(Oc3cnn(C)c3)c(C(F)(F)F)cn2)n1 [24B],,,,,,,,,,,,
2%,5.89,1.33 µM,1.3 µM,Cc1cccc(NC(=O)c2cc(Oc3cnn(C)c3)c(C(F)(F)F)cn2)n1 [24C],,,,,,,,,,,,
2%,5.77,1.72 µM,,Cc1cc(Oc2cc(C)n(C)n2)cc(C(=O)Nc2nc(C)cs2)n1 [22eB],,,,,,,,,,,,
2%,6.30,0.506 µM,,Cc1cc(Oc2ccnn2C)cc(C(=O)Nc2ccc(F)cn2)n1 [22hA],,,,,,,,,,,,
2%,5.74,1.85 µM,,Cc1cc(Oc2cc(C(F)F)n(C)n2)cc(C(=O)Nc2nc(C)cs2)n1 [22cB],,,,,,,,,,,,

# The next lines start with the compound.
SMILES,% GluMin (human mGlu5; human mGlu5-HEK293A cells),pIC50 (human mGlu5; [7]),IC50 (human mGlu5; [7]),IC50 (human mGlu5),Kp at 0.25 h [1],Kp uu at 0.25 h ([1]; unbound brain-to-plasma partition ratio),"CLint scaled at 40 min, 1 µM [2]","CLhep, human [2]","Human fu,plasma ([3]; fraction unbound)","fraction unbound at 6 h, 5 µM [3]","CLint scaled at 40 min, 1 µM [4]","CLhep, rat [4]","fraction unbound at 6 h, 1 µM [5]",fold increase in hmGlu5 potency (human mGlu5),stability in rat plasma [6],"Rat fu,brain ([5]; fraction unbound)"
Cc1cc(Oc2ccnn2C)cc(C(=O)Nc2nc(C)cs2)n1 [22hB],2%,7.02,0.096 µM,,1.13,0.15,216 mL/min/kg,19 mL/min/kg,0.062,> 0.04,45 mL/min/kg,27 mL/min/kg,0.029,,,
Cc1cccc(NC(=O)c2cc(Oc3ncn(C)n3)cc(C)n2)n1 [22dC],2%,6.00,1.01 µM,,,,,,,,,,,,,
Cc1cccc(NC(=O)c2cc(Oc3cc(C)nn3C)cc(C)n2)n1 [22fC],2%,6.69,0.207 µM,,1.02,,71 mL/min/kg,16 mL/min/kg,,0.037,436 mL/min/kg,60 mL/min/kg,< 0.01,7.8 fold,possibly be unstable in rat plasma,0.008
Cc1cccc(NC(=O)c2cc(Oc3cnn(C)c3C(F)(F)F)cc(C)n2)n1 [22gC],,,,,,,68 mL/min/kg,16 mL/min/kg,,0.011,600 mL/min/kg,63 mL/min/kg,0.005,,,
Cc1cc(Oc2cnn(C)c2C(F)(F)F)cc(C(=O)Nc2nc(C)cs2)n1 [22gB],2%,7.58,0.026 µM,,5.57,,70 mL/min/kg,16 mL/min/kg,,,817 mL/min/kg,65 mL/min/kg,,,possibly be unstable in rat plasma,
Cc1cc(Oc2cnn(C)c2C(F)(F)F)cc(C(=O)Nc2ccc(F)cn2)n1 [22gA],2%,6.93,0.12 µM,,3.08,,11 mL/min/kg,7 mL/min/kg,,0.012,82 mL/min/kg,38 mL/min/kg,,~3 fold,possibly be unstable in rat plasma,
Cc1cccc(NC(=O)c2cc(Oc3c(C)nn(C)c3C)cc(C)n2)n1 [22aC],2%,5.55,2.84 µM,2.8 µM,,,,,,,,,,,,
